Measurements: the supplement of paper PMC10883282

Assays:
Experiment in all cases: relative viability vs DMSO control (72 h) (fraction); higher = more viable cells
[1] = tested on: A204
Summary of the method: (§1)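 Plates held 72 h at 37 °C and 5% CO2 contained sarcoma cell lines seeded in 384-well format to reach 80–90% confluence, plus 2.5 µl of serially diluted compound added after 24 h. Source plate concentrations ran from 10 mM to 0.0002 mM, with 0.1% DMSO as vehicle and a 5 µM positive control. Percent growth from ATPLite readings, averaged over up to triplicate wells, gave relative viability. Values were rescaled with 1 as full and 0 as none.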

[2] = tested on: G401
Summary of the method: as §1

[3] = tested on: HS729
Summary of the method: as §1

[4] = tested on: HT1080
Summary of the method: as §1

[5] = tested on: KHOS-NP
Summary of the method: as §1

[6] = tested on: MES-SA
Summary of the method: as §1

[7] = tested on: SK-LMS-1
Summary of the method: as §1

[8] = tested on: SW1353
Summary of the method: as §1

[9] = tested on: SW684
Summary of the method: as §1

[10] = tested on: SW872
Summary of the method: as §1

[11] = tested on: SYO-1
Summary of the method: as §1

[12] = tested on: VA-ES-BJ
Summary of the method: as §1

Cc1cc2cc(Oc3ccnc(Nc4cccc(CS(=O)(=O)NCCN(C)C)c4)n3)ccc2[nH]1 [Sulfatinib]
Conditions	relative viability
[1], 0.00017 µM	1.09
[1], 0.00051 µM	1.08
[1], 0.00152 µM	1.08
[1], 0.00457 µM	1.05
[1], 0.01372 µM	1.07
[1], 0.04115 µM	1.02
[1], 0.1235 µM	1.01
[1], 0.3704 µM	0.878
[1], 1.111 µM	0.536
[1], 3.333 µM	0.283
[1], 10 µM	0.136
[2], 0.00017 µM	1.024
[2], 0.00051 µM	0.976
[2], 0.00152 µM	1.01
[2], 0.00457 µM	0.995
[2], 0.01372 µM	1.04
[2], 0.04115 µM	0.993
[2], 0.1235 µM	0.983
[2], 0.3704 µM	1.02
[2], 1.111 µM	0.969
[2], 3.333 µM	0.536
[2], 10 µM	0.157
[3], 0.00017 µM	0.983
[3], 0.00051 µM	0.993
[3], 0.00152 µM	0.979
[3], 0.00457 µM	0.9
[3], 0.01372 µM	0.939
[3], 0.04115 µM	0.872
[3], 0.1235 µM	0.877
[3], 0.3704 µM	0.843
[3], 1.111 µM	0.768
[3], 3.333 µM	0.629
[3], 10 µM	0.49
[4], 0.00017 µM	1.023
[4], 0.00051 µM	0.983
[4], 0.00152 µM	0.997
[4], 0.00457 µM	1.03
[4], 0.01372 µM	1.03
[4], 0.04115 µM	1.03
[4], 0.1235 µM	1.01
[4], 0.3704 µM	1.044
[4], 1.111 µM	0.969
[4], 3.333 µM	1.05
[4], 10 µM	0.878
[5], 0.00017 µM	1.05
[5], 0.00051 µM	1.05
[5], 0.00152 µM	1.03
[5], 0.00457 µM	1.006
[5], 0.01372 µM	1.03
[5], 0.04115 µM	1.019
[5], 0.1235 µM	1.04
[5], 0.3704 µM	1.026
[5], 1.111 µM	1.01
[5], 3.333 µM	1.01
[5], 10 µM	0.963
[6], 0.00017 µM	0.911
[6], 0.00051 µM	0.92
[6], 0.00152 µM	0.913
[6], 0.00457 µM	0.906
[6], 0.01372 µM	0.925
[6], 0.04115 µM	0.894
[6], 0.1235 µM	0.9221
[6], 0.3704 µM	0.9312
[6], 1.111 µM	0.969
[6], 3.333 µM	0.791
[6], 10 µM	0.299
[7], 0.00017 µM	1
[7], 0.00051 µM	1.07
[7], 0.00152 µM	1.01
[7], 0.00457 µM	1.04
[7], 0.01372 µM	1.04
[7], 0.04115 µM	1.03
[7], 0.1235 µM	1.03
[7], 0.3704 µM	0.986
[7], 1.111 µM	1.01
[7], 3.333 µM	0.924
[7], 10 µM	0.531
[8], 0.00017 µM	0.936
[8], 0.00051 µM	0.911
[8], 0.00152 µM	0.925
[8], 0.00457 µM	0.941
[8], 0.01372 µM	0.975
[8], 0.04115 µM	0.922
[8], 0.1235 µM	0.964
[8], 0.3704 µM	0.931
[8], 1.111 µM	0.906
[8], 3.333 µM	0.845
[8], 10 µM	0.565
[9], 0.00017 µM	1.11
[9], 0.00051 µM	1.09
[9], 0.00152 µM	1.09
[9], 0.00457 µM	1.12
[9], 0.01372 µM	1.08
[9], 0.04115 µM	1.07
[9], 0.1235 µM	1.04
[9], 0.3704 µM	1.1
[9], 1.111 µM	1.05
[9], 3.333 µM	0.995
[9], 10 µM	0.555
[10], 0.00017 µM	1.02
[10], 0.00051 µM	1.05
[10], 0.00152 µM	1.02
[10], 0.00457 µM	1.02
[10], 0.01372 µM	1
[10], 0.04115 µM	0.996
[10], 0.1235 µM	1.02
[10], 0.3704 µM	1.02
[10], 1.111 µM	0.973
[10], 3.333 µM	0.88
[10], 10 µM	0.526
[11], 0.00017 µM	0.943
[11], 0.00051 µM	0.962
[11], 0.00152 µM	0.945
[11], 0.00457 µM	0.938
[11], 0.01372 µM	0.9
[11], 0.04115 µM	0.865
[11], 0.1235 µM	0.805
[11], 0.3704 µM	0.607
[11], 1.111 µM	0.423
[11], 3.333 µM	0.341
[11], 10 µM	0.105
[12], 0.00017 µM	1.03
[12], 0.00051 µM	1.03
[12], 0.00152 µM	1.02
[12], 0.00457 µM	1.03
[12], 0.01372 µM	1.02
[12], 0.04115 µM	1.02
[12], 0.1235 µM	1
[12], 0.3704 µM	1.04
[12], 1.111 µM	1.08
[12], 3.333 µM	1.04
[12], 10 µM	0.486
